Results as given in ChEMBL document CHEMBL2074285, “Characterization of the drug resistance and transport properties of multidrug resistance protein 6 (MRP6, ABCC6)” (Cancer Res, 2002).
Numbered stars: 1 amine (or outer) side, 2 acyl side, 3 side chain; on linkers, the order of the positions; unused ones are H or OH. Bridge positions count the residues as written; N and C are the ends. Square brackets hold non-standard residues; d marks the D form. Peptide text beside a SMILES is read from it. I, II: the chains in the order shown. Actinocin(9to1) = Cc1c2oc3c(C)ccc(C(=O)[*:1])c3nc-2c(C(=O)[*:2])c(N)c1=O; NMeV = CN[C@H](C(=O)O)C(C)C; Sar = CNCC(=O)O

Molecular target: T1, ATP-binding cassette sub-family C member 6 (Homo sapiens, UniProt O95255)
T1 sequence (O95255 whole entry): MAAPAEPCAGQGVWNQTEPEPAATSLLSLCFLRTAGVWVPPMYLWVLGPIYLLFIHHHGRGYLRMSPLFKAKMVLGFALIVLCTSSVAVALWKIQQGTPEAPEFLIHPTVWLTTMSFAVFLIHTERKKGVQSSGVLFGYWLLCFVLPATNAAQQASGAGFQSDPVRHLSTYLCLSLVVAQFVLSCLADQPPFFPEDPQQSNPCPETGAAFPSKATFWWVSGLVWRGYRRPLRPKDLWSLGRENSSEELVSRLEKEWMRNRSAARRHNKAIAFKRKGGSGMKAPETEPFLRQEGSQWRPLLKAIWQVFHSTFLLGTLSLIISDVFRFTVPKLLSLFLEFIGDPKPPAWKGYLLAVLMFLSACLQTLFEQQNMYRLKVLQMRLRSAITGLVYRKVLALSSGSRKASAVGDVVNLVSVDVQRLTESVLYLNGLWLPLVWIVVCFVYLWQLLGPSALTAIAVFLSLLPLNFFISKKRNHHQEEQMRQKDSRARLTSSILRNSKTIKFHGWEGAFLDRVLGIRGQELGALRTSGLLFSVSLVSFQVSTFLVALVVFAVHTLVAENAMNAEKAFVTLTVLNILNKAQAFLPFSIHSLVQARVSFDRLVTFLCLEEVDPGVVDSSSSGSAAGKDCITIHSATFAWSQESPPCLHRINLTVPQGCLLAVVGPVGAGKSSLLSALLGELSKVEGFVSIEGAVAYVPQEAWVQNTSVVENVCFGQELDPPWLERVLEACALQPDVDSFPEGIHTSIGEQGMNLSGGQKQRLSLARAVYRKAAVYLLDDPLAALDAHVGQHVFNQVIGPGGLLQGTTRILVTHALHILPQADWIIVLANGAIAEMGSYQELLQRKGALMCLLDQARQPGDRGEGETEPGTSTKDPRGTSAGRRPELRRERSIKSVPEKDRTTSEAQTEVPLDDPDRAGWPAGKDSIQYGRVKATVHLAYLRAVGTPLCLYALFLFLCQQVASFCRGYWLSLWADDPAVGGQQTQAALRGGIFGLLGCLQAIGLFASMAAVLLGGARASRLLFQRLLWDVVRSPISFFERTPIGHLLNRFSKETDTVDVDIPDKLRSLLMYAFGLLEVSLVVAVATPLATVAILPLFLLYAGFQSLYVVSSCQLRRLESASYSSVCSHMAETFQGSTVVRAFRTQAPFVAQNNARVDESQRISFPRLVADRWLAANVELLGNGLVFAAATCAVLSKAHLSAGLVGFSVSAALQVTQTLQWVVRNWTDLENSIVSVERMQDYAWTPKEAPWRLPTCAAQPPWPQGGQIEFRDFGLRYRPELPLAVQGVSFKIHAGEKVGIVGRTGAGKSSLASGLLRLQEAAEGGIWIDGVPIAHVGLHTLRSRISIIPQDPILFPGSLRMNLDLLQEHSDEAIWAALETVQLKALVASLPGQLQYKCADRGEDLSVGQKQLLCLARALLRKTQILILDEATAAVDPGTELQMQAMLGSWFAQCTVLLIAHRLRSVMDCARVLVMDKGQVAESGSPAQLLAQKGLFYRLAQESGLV
Test: TP_TRANSPORTER: drug resistance in MRP6-expressing CHO cells
Type: functional, cell-based
Conditions: hamster

Row | Compound | Activity
1 | Cc1c2oc3c(C)ccc(C(=O)N[C@@H]4C(=O)N[C@H](C(C)C)C(=O)N5CCC[C@H]5C(=O)N(C)CC(=O)N(C)[C@@H](C(C)C)C(=O)O[C@@H]4C)c3nc-2c(C(=O)N[C@@H]2C(=O)N[C@H](C(C)C)C(=O)N3CCC[C@H]3C(=O)N(C)CC(=O)N(C)[C@@H](C(C)C)C(=O)O[C@@H]2C)c(N)c1=O [DACTINOMYCIN] (I: T[dV]P[Sar][NMeV] / II: T[dV]P[Sar][NMeV]; ester I:1-I:C, II:1-II:C; linker I:N-II:N via Actinocin(9to1)) | substrate []
2 | COc1cccc2c1C(=O)c1c(O)c3c(c(O)c1C2=O)C[C@@](O)(C(C)=O)C[C@@H]3O[C@H]1C[C@H](N)[C@H](O)[C@H](C)O1 [DAUNORUBICIN] | substrate []
3 | COc1cccc2c1C(=O)c1c(O)c3c(c(O)c1C2=O)C[C@@](O)(C(=O)CO)C[C@@H]3O[C@H]1C[C@H](N)[C@H](O)[C@H](C)O1 [DOXORUBICIN] | substrate []
4 | COc1cc([C@@H]2c3cc4c(cc3[C@@H](O[C@@H]3O[C@@H]5CO[C@@H](C)O[C@H]5[C@H](O)[C@H]3O)[C@H]3COC(=O)[C@H]23)OCO4)cc(OC)c1O [ETOPOSIDE] | substrate []
5 | COc1cc([C@@H]2c3cc4c(cc3[C@@H](O[C@@H]3O[C@@H]5CO[C@@H](c6cccs6)O[C@H]5[C@H](O)[C@H]3O)[C@H]3COC(=O)[C@H]23)OCO4)cc(OC)c1O [TENIPOSIDE] | substrate []
6 | CISPLATIN | substrate []

Molecular target: T1, ATP-binding cassette sub-family C member 6
Test: TP_TRANSPORTER: uptake in membrane vesicle from MRP6-expressing CHO cells
Type: functional, cell membranes
Conditions: hamster

Row | Compound | Activity
7 | N[C@@H](CCC(=O)N[C@H](CSc1ccc([N+](=O)[O-])cc1[N+](=O)[O-])C(=O)NCC(=O)O)C(=O)O | substrate [+]
8 | CC(C)C[C@@H]1NC(=O)[C@@H](C(C)C)NC(=O)[C@@H]2CCCN2C(=O)[C@@H](CC(=O)O)NC(=O)[C@@H](Cc2c[nH]c3ccccc23)NC1=O [BQ-123] (HELM PEPTIDE1{L.[dW].[dD].P.[dV]}$PEPTIDE1,PEPTIDE1,1:R1-5:R2$$$V2.0) | substrate [+]
9 | CCCCC/C=C\C\C=C/C=C/C=C/[C@@H](SC[C@@H](NC(=O)CC[C@H](N)C(=O)O)C(=O)NCC(=O)O)[C@@H](O)CCCC(=O)O [LEUKOTRIEN C4] | substrate [+]
